Reference: patent publication US20200333357A1, “NOVEL TFEB PATHWAY AGONISTS FOR METABOLIC DISEASES AND AGEING” (The Board of Regents of the University of Texas System, priority 2017, published 2020)
“Also recorded” adds a separate entry of the source.

What was measured:
TFEB = assay: GFP-TFEB nuclear translocation (high-content screen, dose-response, confocal imaging); assay type: cell-based, human; conditions: for hit status in the TFEB screen overlapping with the autophagy (GFP-LC3) screen: compounds added for 4 hr, overlap with top 30 hits of autophagy screen; for TFEB nuclear accumulation by AMPK activators: GFP-TFEB HeLa cells
Experimental: GFP-TFEB HeLa cells were seeded in 384-well plates. Compounds were added for 4 hr the following day. Bafilomycin A1 (250 nM) treated cells were used as positive controls and DMSO-treated cells as negative controls. […] Images were collected using 405 nm and 488 nm laser lines with DAPI and FITC emission filters. Images were analyzed using the GE IN Cell Analyzer Workstation software. Briefly, nuclei were segmented using the Hoechst channel and the cytoplasm was segmented using the GFP channel. For each cell, the mean GFP intensity in each compartment was measured and used to calculate the nuclear to cytoplasmic (N/C) TFEB-GFP ratio. The same method as mentioned above was used to generate the top 30 compounds with highest condensed activity values and robust Z score values.
GFP-TFEB HeLa cells treated with compounds or DMSO were fixed and stained with Hoechst. Images from at least 3 different fields per sample were acquired using a 40× objective on a Zeiss confocal microscope and analyzed with ImageJ. 20-30 cells were evaluated from each image for each sample, and 3 independent experiments were performed to generate the graphed values.

mTORC1 = assay: TSC2 dependence of mTORC1 inhibition and TFEB activation in p53-/- and p53-/-, TSC2-/- MEFs; assay type: cell-based, mouse; conditions: p53-/- vs p53-/-
HeLa cells = assay: Cellular ROS level (CellROX Green); assay type: cell-based, human; conditions: 4 hrs
From the text: SFIGS. 5A-I. Small-molecule activators of TFEB engage different sources of Ca. (SFIG. 5A) HeLa cells were pretreated with or without N-acetyl-cysteine (NAC) for 1 hr and then treated with tert-butyl hydroperoxide (TBHP) or AD for 4 hrs. TBHP and NAC were used as positive and negative controls. A ROS-sensitive DNA dye CellROX Green was used to detect cellular ROS levels after these treatments. Endogenous TFEB localization was also shown. (SFIG. 5B) Quantification of the fluorescent intensity of CellROX Green in cells treated as in a was done by a plate reader. (SFIG. 5C) Quantification of endogenous TFEB nuclear translocation in SFIG. 5A. (SFIG. 5D) Cells were pretreated with or without 25 μM IP3R inhibitor Xestosporine C (Xesto) for 1 hr and then treated with DG, AD and IKA for indicated time. Quantification of TFEB translocation was shown in SFIG. 5E-G (graphs represent mean±s.d. **p<0.01, ***p<0.001, ****p<0.0001). (SFIG. 5H-I) RNA-interference were used to knock down inositol […] receptor type 1 (IP3R1) in GFP-TFEB cells before they were treated with DG, AD and IKA. siLONRF1 was used as a negative control. TFEB translocation percentage was quantified from images as shown in SFIG. 5I (mean±s.d. for n=3 independent experiments, ****p<0.0001). Scale bar, 20 μm.

[1] = test system: mice under fed and fast conditions; assay: Short-term starvation and chloroquine-induced acute hepatic lipid accumulation in mice; assay type: in vivo, mouse; conditions: overnight fast; CQ intraperitoneal; DG oral co-administration
Experimental: SFIGS. […] (SFIG. 6A) The body weight (left y-axis, solid symbols) and food intake (right y-axis, open symbols) measured in normal-diet-fed mice treated with vehicle or 2.5 mg/kg DG. (SFIG. 6B) Drug release curves of AD (upper panel) and IKA (lower panel) in PBS. […] (SFIG. 6F) Cells were treated with various doses DG, AD and IKA for 4 hours, and cell viability was measured immediately or after 72 hours. Dose response curves were simulated using ImageJ. (SFIG. 6G) H&E staining of heart, spleen and kidney sections from mice treated with DG, AD, IKA and their corresponding controls. Scale bar, 100 μm. (SFIG. 6H) H&E staining of liver and heart sections as well as ORO and p62/SQSTM1 IHC staining of liver sections from mice under fed and fast conditions with orally injected DG and intraperitoneally injected CQ, individually and jointly, or their corresponding control (Saline). Scale bar, 50 μm. (SFIG. 6I) The body weight of mice after the treatment described in SFIG. 6H. (SFIGS. 6J-L) Total serum levels of triglyceride, cholesterol and glucose of mice after the treatment described in SFIG. 6G.

Which “hit status in the TFEB screen overlapping with the autophagy (GFP-LC3) screen” value (TFEB) does the source give for `C[C@@H]1O[C@@H](O[C@@H]2C=C3CC[C@@H]4[C@H](CC[C@]5(C)[C@@H](c6ccc(=O)oc6)CC[C@]45O)[C@@]3(C)CC2)[C@H](O)[C@H](O)[C@H]1O` [proscillaridin A, reference compound] here?
The value was “top 18 hits; also recorded: top scoring hits”.

What about the “dependence of mTORC1 inhibition / TFEB activation on TSC2” value (mTORC1) of the same compound?
The value was “independent”.

For `CC(C)(C)OO` [TBHP, tert-Butyl hydroperoxide, reference compound], which ROS production (HeLa cells) is on record?
The ROS production was “comparable ROS production”.

How did the “hit status in the TFEB screen overlapping with the autophagy (GFP-LC3) screen” value (TFEB) turn out when `C[C@@H]1C[C@@H]([C@H](O)CC2CC(=O)NC(=O)C2)C(=O)[C@@H](C)C1` [cycloheximide, reference compound] was run?
The value was “top 18 hits”.

With `NC(=O)c1ncn([C@@H]2O[C@H](COP(=O)(O)O)[C@@H](O)[C@H]2O)c1N` [AICAR, 5-aminoimidazole-4-carboxamide ribonucleotide, reference compound] as the compound, how does the “TFEB nuclear accumulation by AMPK activators” value (TFEB) read?
Its value is “sufficient to induce TFEB nuclear accumulation”.

`CCN(CC)CCCC(C)Nc1ccnc2cc(Cl)ccc12` (stereo not shown) [CQ, chloroquine] was tested. Which “fast-induced hepatic lipid accumulation” value [1] did it give?
Its value is “exacerbated”.

Which “TFEB nuclear accumulation by AMPK activators” value (TFEB) does the source give for `CN(C)C(=N)N=C(N)N` [metformin, reference compound] here?
The value was “sufficient to induce TFEB nuclear accumulation”.
